Results on 18 molecules are retold here after US20240239767A1 (AstraZeneca AB, priority 2022, published 2024).

Assay [1] addresses T1, potassium ion channel hERG (human Ether-á-go-go-Related Gene) (Homo sapiens, UniProt Q12809).
T1 construct: expressed in transfected cells; host or cells: Chinese hamster ovary K1 (CHO)
As to the kind of experiment: Assay 5 - hERG assay (SyncroPatch 384PE patch clamp, CHO cells). Type of assay: cell-based. To be noted: geometric mean, CHO cells over-expressing hERG, read-out: Assay 5 (hERG Hu CHO IF EPh CR-Syncro) GMean IC50. As to the method: Assay 5—hERG Assay (Human Ether-á-go-go-Related Gene)
This assay (human Ether-á-go-go-Related Gene) measures activity of the compounds at the potassium ion channel hERG (human Ether-á-go-go-Related Gene).
Experiments were performed on the SyncroPatch 384PE high throughput patch clamp platform at room temperature and medium resistance chips with 4 patch holes per site. Chinese hamster ovary K1 (CHO) cell lines over-expressing the ion channel of choice (hERG) were used in assay-ready format and kept in liquid nitrogen or were used from live culture. Cells were either thawed and diluted in HBSS or were detached from flasks and resuspended in HBSS. HBSS comprised 140 mM NaCl, 4 mM KCl, 10 mM HEPES and 5 mM Glucose (pH 7.4). The internal patch clamp solution was KF 120 mM, KCl 20 mM, HEPES 10 mM, EGTA 10 mM, and 25 μM Escin (pH 7.2). After the sealing process was complete, the external solution was exchanged for external patch clamp solution comprising NaCl 80 mM, KCl 4 mM, HEPES 10 mM, CaCl2 2 mM, MgCl2 1 mM, glucose 5 mM, and NMDG 60 mM (pH 7.4). All solutions were stored at room temperature, except Escin, which was stored at 4° C. All test compounds were dispensed in greiner-bio 384 well plates and tested in a 6 point cumulative assay (final DMSO concentration 0.33%). Only wells that passed previously agreed acceptance criteria for this platform were used in this analysis (30 MegaOhm seal resistance, Z prime>0.4 and current size>0.2 nA).

Assay [2] has as its target GSK3b (Glycogen synthase kinase-3 beta) (Homo sapiens, UniProt P49841). Kind of assay: Assay 6 - GSK3b assay (ThermoFisher, FRET Z-Lyte). Type of assay: biochemical. To be noted: geometric mean; ATP Conc: 10.000 μM; read-out: Assay 6 (GSK3B FRET-Z-Lyte CR) GMean IC50 (μM) ATP Conc: 10.000. As to the method: This assay measures the activity of the compounds at GSK3b (Glycogen synthase kinase-3 beta).
The test compounds were screened in 1% DMSO (final) in the well. For 10-point titrations, 3-fold serial dilutions are conducted from the starting concentration of 10 μM.
• Bar-coded Corning, low volume NBS, black 384-well plate • 1. 2.5 μL—4× Test Compound or 100 nL 100× plus 2.4 μL kinase buffer • 2. 5 μL—2× Peptide/Kinase Mixture • 3. 2.5 μL—4× ATP Solution • 4. 30-second plate shake • 5. 60-minute Kinase Reaction incubation at room temperature • 6. 5 μL—Development Reagent Solution • 7. 30-second plate shake • 8. 60-minute Development Reaction incubation at room temperature • 9. Read on fluorescence plate reader and analyse the data
In step 2, the 2× GSK3β (GSK3 beta)/Ser/Thr (Glycogen synthase kinase-3 beta/Serine/Threonine) 09 mixture is prepared in 50 mM HEPES (4-(2-hydroxyethyl)-1-piperazineethanesulfonic acid) pH 7.5, 0.01% BRIJ-35, 10 mM MgCl2, 1 mM EGTA (egtazic acid). The final 10 μL Kinase Reaction consists of 0.22-0.92 ng GSK3β (GSK3 beta) and 2 μM Ser/Thr 09 in 50 mM HEPES pH 7.5, 0.01% BRIJ-35, 10 mM MgCl2, 1 mM EGTA.
In step 3 the ATP Solution is diluted to a 4× working concentration in Kinase Buffer (50 mM HEPES pH 7.5, 0.01% BRIJ-35, 10 mM MgCl2, 1 mM EGTA).
In Step 6 the Development Reagent is diluted 1:512 in Development Buffer (10× Novel PKC Lipid Mix: 2 mg/mL Phosphatidyl Serine, 0.2 mg/mL DAG in 20 mM HEPES, pH 7.4, 0.3% CHAPS).
SelectScreen® Kinase Profiling Service uses XLfit from IDBS. The dose response curve is curve fit to model number 205 (sigmoidal dose-response model).

Assay [3] addresses T2, PCSK9 (Homo sapiens, UniProt Q8NBP7, G670E/V474I). As to the kind of experiment: cell-based.
Target sequence in this assay (Q8NBP7 31-152): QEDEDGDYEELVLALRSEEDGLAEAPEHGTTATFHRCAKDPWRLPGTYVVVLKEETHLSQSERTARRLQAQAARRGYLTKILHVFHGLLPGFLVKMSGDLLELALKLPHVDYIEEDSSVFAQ
Target sequence in this assay (Q8NBP7 153-692 V474I/G670E): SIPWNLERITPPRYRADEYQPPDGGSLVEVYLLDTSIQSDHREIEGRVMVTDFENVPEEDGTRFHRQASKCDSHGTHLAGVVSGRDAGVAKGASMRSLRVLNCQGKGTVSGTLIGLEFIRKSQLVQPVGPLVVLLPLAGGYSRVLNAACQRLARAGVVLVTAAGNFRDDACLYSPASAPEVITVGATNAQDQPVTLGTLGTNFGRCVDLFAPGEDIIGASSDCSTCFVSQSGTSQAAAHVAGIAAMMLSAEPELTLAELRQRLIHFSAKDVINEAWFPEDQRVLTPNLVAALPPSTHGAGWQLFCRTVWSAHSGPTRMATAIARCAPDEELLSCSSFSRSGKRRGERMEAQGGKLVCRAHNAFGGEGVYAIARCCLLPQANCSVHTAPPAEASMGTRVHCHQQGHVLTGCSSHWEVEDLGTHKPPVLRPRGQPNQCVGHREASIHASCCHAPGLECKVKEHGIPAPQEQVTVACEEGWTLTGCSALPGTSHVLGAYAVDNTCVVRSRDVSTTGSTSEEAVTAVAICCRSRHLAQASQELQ
The target in assay [4] is T2, PCSK9. As to the kind of experiment: biochemical.
Target sequence in this assay (Q8NBP7 with tags, fused parts or gaps V474I/G670E): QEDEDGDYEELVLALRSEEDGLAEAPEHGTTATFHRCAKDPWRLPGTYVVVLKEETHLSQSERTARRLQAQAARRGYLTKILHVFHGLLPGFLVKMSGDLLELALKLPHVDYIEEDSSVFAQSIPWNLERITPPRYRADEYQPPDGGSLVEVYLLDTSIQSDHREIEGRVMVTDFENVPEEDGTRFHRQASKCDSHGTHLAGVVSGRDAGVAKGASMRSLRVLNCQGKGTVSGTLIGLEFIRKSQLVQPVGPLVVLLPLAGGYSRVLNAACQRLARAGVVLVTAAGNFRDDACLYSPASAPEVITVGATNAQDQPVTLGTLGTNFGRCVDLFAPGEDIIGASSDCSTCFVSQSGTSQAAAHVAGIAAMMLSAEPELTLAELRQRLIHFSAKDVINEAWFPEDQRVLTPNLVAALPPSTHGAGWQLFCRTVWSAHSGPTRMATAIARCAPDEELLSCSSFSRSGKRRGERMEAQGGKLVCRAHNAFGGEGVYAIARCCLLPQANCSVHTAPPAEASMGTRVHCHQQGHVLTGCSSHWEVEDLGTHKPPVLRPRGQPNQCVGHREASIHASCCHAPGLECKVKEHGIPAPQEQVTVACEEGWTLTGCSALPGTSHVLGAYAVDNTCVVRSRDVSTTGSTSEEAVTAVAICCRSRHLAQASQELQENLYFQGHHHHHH

GSK3b (Glycogen synthase kinase-3 beta), sequence (P49841 whole entry): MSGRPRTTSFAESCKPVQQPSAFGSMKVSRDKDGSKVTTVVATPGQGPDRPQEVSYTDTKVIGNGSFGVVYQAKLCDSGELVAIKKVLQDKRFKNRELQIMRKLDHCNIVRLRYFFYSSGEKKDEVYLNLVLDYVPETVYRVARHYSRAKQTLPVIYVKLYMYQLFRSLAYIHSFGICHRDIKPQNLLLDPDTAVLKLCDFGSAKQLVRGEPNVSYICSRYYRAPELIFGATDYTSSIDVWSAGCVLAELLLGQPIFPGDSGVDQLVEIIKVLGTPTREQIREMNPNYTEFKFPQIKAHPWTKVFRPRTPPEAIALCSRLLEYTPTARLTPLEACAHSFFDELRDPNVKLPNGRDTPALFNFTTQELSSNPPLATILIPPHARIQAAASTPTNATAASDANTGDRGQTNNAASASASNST
T1 sequence (Q12809 whole entry): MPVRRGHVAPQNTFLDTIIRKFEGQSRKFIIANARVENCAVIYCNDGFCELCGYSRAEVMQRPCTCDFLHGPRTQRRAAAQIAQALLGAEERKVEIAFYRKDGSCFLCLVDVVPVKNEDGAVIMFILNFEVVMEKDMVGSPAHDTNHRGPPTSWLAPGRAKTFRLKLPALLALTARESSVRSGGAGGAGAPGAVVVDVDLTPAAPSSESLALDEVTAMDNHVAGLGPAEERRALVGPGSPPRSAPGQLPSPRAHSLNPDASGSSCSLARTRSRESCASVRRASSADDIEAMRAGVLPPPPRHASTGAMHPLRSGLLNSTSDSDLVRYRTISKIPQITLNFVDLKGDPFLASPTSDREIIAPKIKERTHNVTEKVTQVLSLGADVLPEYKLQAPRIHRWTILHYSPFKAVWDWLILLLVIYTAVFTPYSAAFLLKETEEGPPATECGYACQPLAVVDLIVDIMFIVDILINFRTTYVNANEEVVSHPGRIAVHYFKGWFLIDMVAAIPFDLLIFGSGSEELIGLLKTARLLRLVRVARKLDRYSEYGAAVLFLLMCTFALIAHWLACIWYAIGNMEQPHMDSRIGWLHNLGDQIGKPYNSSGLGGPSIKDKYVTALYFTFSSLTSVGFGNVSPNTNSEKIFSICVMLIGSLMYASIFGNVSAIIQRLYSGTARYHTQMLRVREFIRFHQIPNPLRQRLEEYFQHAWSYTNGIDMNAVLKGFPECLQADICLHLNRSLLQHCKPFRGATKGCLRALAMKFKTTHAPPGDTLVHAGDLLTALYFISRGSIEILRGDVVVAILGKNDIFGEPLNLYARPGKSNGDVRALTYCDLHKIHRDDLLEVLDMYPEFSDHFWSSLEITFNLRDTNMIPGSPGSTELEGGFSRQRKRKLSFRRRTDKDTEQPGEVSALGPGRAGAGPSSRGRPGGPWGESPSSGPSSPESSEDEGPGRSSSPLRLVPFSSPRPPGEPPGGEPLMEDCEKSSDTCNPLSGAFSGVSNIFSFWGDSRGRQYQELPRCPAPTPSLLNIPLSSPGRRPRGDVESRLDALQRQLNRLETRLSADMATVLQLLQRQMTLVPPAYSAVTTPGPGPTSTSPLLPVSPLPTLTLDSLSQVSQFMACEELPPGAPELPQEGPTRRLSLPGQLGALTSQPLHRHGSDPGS

Broadly, the IC50 is the concentration needed to halve the response being measured. On to `N#Cc1cccn(-c2ccc(N[C@H]3CC[C@H](Nc4nc5cccnc5s4)C3)nc2)c1=O` [Example 23, 2-Oxo-6′-(((1S,3S)-3-(thiazolo[5,4-b]pyridin-2-ylamino)cyclopentyl)amino)-2H-[1,3′-bipyridine]-3-carbonitrile], for which the IC50 is 24.6 µM in assay [1], > 10 µM in assay [2], 92 nM in assay [3] and 1.2 nM in assay [4].

As for `Cc1cnc2[nH]c(N[C@H]3CC[C@H](Nc4ccc(-n5ccccc5=O)cn4)C3)nc2c1` [Example 49, 6′-(((1S,3S)-3-((6-Methyl-3H-imidazo[4,5-b]pyridin-2-yl)amino)cyclopentyl)amino)-2H-[1,3′-bipyridin]-2-one], the IC50 is > 40 µM in assay [1], 5.59 µM in assay [2], 43 nM in assay [3] and 2.8 nM in assay [4].

With `Cc1ncc(-c2ccc(=O)n(-c3ccc(N[C@H]4CC[C@H](Nc5nc6cc(Br)cnc6[nH]5)C4)nc3)c2)cn1` [Example 52, 6′-(((1S,3S)-3-((6-Bromo-3H-imidazo[4,5-b]pyridin-2-yl)amino)cyclopentyl)amino)-5-(2-methylpyrimidin-5-yl)-2H-[1,3′-bipyridin]-2-one], the IC50 in assay [1] is > 40 µM; in assay [2], 0.178 µM; in assay [3], 590 nM; in assay [4] it was 4.5 nM.

As for `O=c1cccnn1-c1ccc(N[C@H]2CC[C@H](Nc3nc4cccnc4[nH]3)C2)nc1` [Example 28, 2-(6-(((1S,3S)-3-((3H-Imidazo[4,5-b]pyridin-2-yl)amino)cyclopentyl)amino)pyridin-3-yl)pyridazin-3(2H)-one], the 50% inhibitory concentration (IC50) is > 40 µM in assay [1], > 10 µM in assay [2], 173 nM in assay [3] and 5.7 nM in assay [4].

Regarding `O=c1ccc(OC(F)F)cn1-c1ccc(N[C@H]2CC[C@H](Nc3nc4cccnc4s3)C2)nc1` [Example 77, 5-(Difluoromethoxy)-6′-(((1S,3S)-3-(thiazolo[5,4-b]pyridin-2-ylamino)cyclopentyl)amino)-2H-[1,3′-bipyridin]-2-one], the half-inhibitory concentration (IC50) came to 10.4 µM in assay [1], 4.72 µM in assay [2], 204 nM in assay [3] and 4.2 nM in assay [4].

As to `O=c1ccncn1-c1ccc(N[C@H]2CC[C@H](Nc3nc4cccnc4[nH]3)C2)nc1` [Example 29, 3-(6-(((1S,3S)-3-((3H-Imidazo[4,5-b]pyridin-2-yl)amino)cyclopentyl)amino)pyridin-3-yl)pyrimidin-4(3H)-one], the IC50 in assay [1] is > 40 µM; in assay [2] it was > 10 µM; in assay [3], 68 nM; in assay [4] it was 5.7 nM.

Regarding `CCc1cnc2[nH]c(N[C@H]3CC[C@H](Nc4ccc(-n5ccccc5=O)cn4)C3)nc2c1` [Example 56, 6′-(((1S,3S)-3-((6-Ethyl-3H-imidazo[4,5-b]pyridin-2-yl)amino)cyclopentyl)amino)-2H-[1,3′-bipyridin]-2-one], the IC50 in assay [1] was > 40 µM; in assay [2] it was 3.13 µM; in assay [3] it was 395 nM; in assay [4], 3.1 nM.

Take `O=c1c(Cl)cccn1-c1ccc(N[C@H]2CC[C@H](Nc3nc4cccnc4o3)C2)nc1` [Example 16, 3-Chloro-6′-(((1S,3S)-3-(oxazolo[5,4-b]pyridin-2-ylamino)cyclopentyl)amino)-2H-[1,3′-bipyridin]-2-one]: the half-inhibitory concentration (IC50) was 28.4 µM in assay [1], > 10 µM in assay [2], 81 nM in assay [3] and 1.6 nM in assay [4].

Consider `O=c1ccccn1-c1ccc(N[C@H]2CC[C@H](Nc3nc4cc(Br)cnc4s3)C2)nc1` [Compound 87, 6′-(((1S,3S)-3-((6-Bromothiazolo[5,4-b]pyridin-2-yl)amino)cyclopentyl)amino)-2H-[1,3′-bipyridin]-2-one], for which the IC50 came out at 4.31 µM in assay [1], 6.74 µM in assay [2], 410 nM in assay [3] and 1.4 nM in assay [4].

For `Cc1ccc2nc(N[C@H]3CC[C@H](Nc4ccc(-n5ccccc5=O)cn4)C3)oc2c1` [Example 2, 6′-(((1S,3S)-3-((6-Methylbenzo[d]oxazol-2-yl)amino)cyclopentyl)amino)-2H-[1,3′-bipyridin]-2-one], the figures for the 50% inhibitory concentration (IC50) in assay [1], in assay [2] and in assay [4] were 13.2 µM, > 10 µM and 11.8 nM, respectively.

As for `O=c1ccccn1-c1ccc(N[C@H]2CC[C@H](Nc3nc4ccccc4o3)C2)nc1` [Example 1, 6′-(((1S,3S)-3-(Benzo[d]oxazol-2-ylamino)cyclopentyl)amino)-2H-[1,3′-bipyridin]-2-one], the IC50 in assay [1] is > 40 µM; in assay [2], > 10 µM; in assay [4], 34.3 nM.

Take `O=c1ccccn1-c1ccc(N[C@H]2CC[C@H](Nc3nc4ncccc4o3)C2)nc1` [Compound 89, 6′-(((1S,3S)-3-(Oxazolo[4,5-b]pyridin-2-ylamino)cyclopentyl)amino)-2H-[1,3′-bipyridin]-2-one]: the IC50 in assay [1] is > 40.1 µM; in assay [2], > 10 µM; in assay [4], 259 nM.

Consider `N#Cc1ccc2sc(N[C@H]3CC[C@H](Nc4ccc(-n5ccccc5=O)cn4)C3)nc2c1` [Example 9, 2-(((1S,3S)-3-((2-Oxo-2H-[1,3′-bipyridin]-6′-yl)amino)cyclopentyl)amino)benzo[d]thiazole-5-carbonitrile], for which the IC50 in assay [1] amounted to 3.56 µM; in assay [2], 1.51 µM; in assay [4], 17.9 nM.

With `COc1ccccc1-c1ccc(N[C@H]2CC[C@H](Nc3nc4cccnc4[nH]3)C2)nc1` [Example 66, (1S,3S)—N^1-(3H-Imidazo[4,5-b]pyridin-2-yl)-N^3-(5-(2-methoxyphenyl)pyridin-2-yl)cyclopentane-1,3-diamine], the IC50 in assay [1] was 1.94 µM; in assay [2], > 10 µM; in assay [4], 166 nM.

`O=c1ccccn1-c1ccc(N[C@H]2CC[C@H](Nc3nc4cc(CO)ccc4s3)C2)nc1` [Example 84, 6′-(((1S,3S)-3-((5-(Hydroxymethyl)benzo[d]thiazol-2-yl)amino)cyclopentyl)amino)-2H-[1,3′-bipyridin]-2-one]: the IC50 in assay [1] is > 40.1 µM; in assay [2], > 10 µM; in assay [4], 239 nM.

Turning to `N#Cc1ccc(=O)n(-c2ccc(N[C@H]3CC[C@H](Nc4nc5cccnc5o4)C3)nc2)c1` [Example 17, 6′-(((1S,3S)-3-(Oxazolo[5,4-b]pyridin-2-ylamino)cyclopentyl)amino)-2-oxo-2H-[1,3′-bipyridine]-5-carbonitrile], the IC50 in assay [1] was > 40.1 µM; in assay [2], > 10 µM; in assay [4], 30.5 nM.

For the molecule `Cc1ccc2nc(N[C@H]3CC[C@H](Nc4ccc(-n5ccccc5=O)cn4)C3)sc2c1` [Example 8, 6′-(((1S,3S)-3-((6-Methylbenzo[d]thiazol-2-yl)amino)cyclopentyl)amino)-2H-[1,3′-bipyridin]-2-one], the IC50 in assay [1] was 6.32 µM; in assay [2] it was > 10 µM; in assay [4], 2080 nM.

Turning to `O=c1ccc(-c2nn[nH]n2)cn1-c1ccc(N[C@H]2CC[C@H](Nc3nc4cccnc4[nH]3)C2)nc1` [Example 86, 6′-(((1S,3S)-3-((3H-Imidazo[4,5-b]pyridin-2-yl)amino)cyclopentyl)amino)-5-(2H-tetrazol-5-yl)-2H-[1,3′-bipyridin]-2-one], the IC50 in assay [3] was 187 nM; in assay [4], 3.5 nM.
